Test results taken from patent US20220211710A1, “COMPOSITIONS AND METHODS FOR TREATING CANCER WITH NUCLEOSIDE-METABOLISM MODULATORS” (The Regents of the University of California, priority 2019, published 2022).

What was measured:
Type in all cases: cell-based, human
SUIT2 SAMHD1 KO cells [1] = experiment: Immunoblot analysis, SUIT2 SAMHD1 knockout
Experimental: (§1) PBS-washed cell pellets were re-suspended in cold RIPA buffer supplemented with protease and phosphatase inhibitors. Protein lysates were normalized using BCA assay, diluted using RIPA and 4× laemmli loading dye, resolved on 4-12% Bis-Tris gels and electro-transferred to nitrocellulose membranes. After blocking with 5% nonfat milk in TBS+0.1% Tween-20 (TBS-T), membranes were incubated overnight in primary antibodies diluted (per manufacturers instructions) in 5% BSA in TBS-T. Membranes were washed with TBST-T and incubated with HRP-linked secondary antibodies prepared at a 1:2500 dilution in 5% nonfat dry milk in TBS-T. HRP was activated by incubating membranes with a mixture of SuperSignal Pico and SuperSignal Femto ECL reagents (100:1 ratio). Exposure of autoradiography film was used for detection.

SUIT2 cells [2] = experiment: Immunoblot analysis, SUIT2 wild-type; conditions: SUIT2 parental, 5 μM dG + 1 μM forodesine, 24 h
Experimental: as §1

[3] = test system: CCRF-CEM SAMHD1 over-expressing cells; experiment: Propidium iodide cell cycle analysis, CCRF-CEM SAMHD1 over-expressing; conditions: CCRF-CEM expressing SAMHD1, 5 μM dG + 1 μM BCX-1777, 24 h
Experimental: (§2) Treated cells were washed with PBS and suspended in propidium iodide cell cycle staining solution (100 μg/ml propidium iodide; 20 μg/ml Ribonuclease A). 10,000 events were collected per sample. All flow cytometry data were acquired on five-laser BD LSRII, and analyzed using FlowJo software (Tree Star).

SUIT2 SAMHD1 KO cells [4] = experiment: Crystal violet proliferation analysis, SUIT2 SAMHD1 knockout; conditions: 7 d
Experimental: (§3) For crystal violet staining, cells were plated in 6-well cell culture plates at 1×10^4 cells/well and treated as described. Following treatment cells were fixed by incubating in 4% PFA in PBS for 15 m at room temperature. Plates were subsequently washed with PBS and stained with 0.1% crystal violet in H2O for 15 m at room temperature.

HCC827 cells [5] = experiment: Crystal violet proliferation analysis, HCC827; conditions: HCC827, 5 μM dG + 1 μM PNPi, 7 d
Experimental: as §3

CCRF-CEM cells [6] = experiment: Cell Titer Glo proliferation, CCRF-CEM (YFP control)
Experimental: (§4) For CellTiter-Glo analysis cells were plated at 1×10^3 cells/well in 50 μl/well in white opaque 384-well plates and treated as described. Following incubation 50 μl of CellTiter-Glo reagent (Diluted 1:5 in dH2O) was added to each well, plates incubated at room temperature for 5 m and luminescence was measured using a BioTek microplate luminescence reader. Proliferation rate normalized growth inhibition was calculated using the previously described GR metric (Hafner et al., 2016).

JURKAT cells = experiment: Cell Titer Glo proliferation, JURKAT
Experimental: as §4

HCC827 cells [7] = experiment: Cell Titer Glo proliferation, HCC827; conditions: for IC50: Homo sapiens, HCC827, 72 h, +10 μM dG
Experimental: as §4

CCRF-CEM cells [8] = experiment: Immunoblot analysis, CCRF-CEM; conditions: 5 μM dG + 1 μM BCX-1777, 24 h
Experimental: as §1

T-ALL cell lines = experiment: Propidium iodide cell cycle analysis, T-ALL models; conditions: T-ALL models only, 5 μM dG + 1 μM BCX-1777, 24 h
Experimental: as §2

[9] = test system: CCRF-CEM SAMHD1 over-expressing cells; experiment: Cell Titer Glo proliferation, CCRF-CEM SAMHD1 over-expressing
Experimental: as §4

[10] = test system: SAMHD1-deficient primary melanoma cell lines; experiment: Propidium iodide cell cycle analysis, SAMHD1-deficient primary melanoma models; conditions: only SAMHD1-deficient melanoma models, 1 μM PNPi + 10 μM dG, 24 h
Experimental: as §2

MOLT-4 cells = experiment: Cell Titer Glo proliferation, MOLT-4; conditions: MOLT-4, 5 μM dG + 1 μM BCX-1777, 72 h
Experimental: as §4

[11] = test system: CCRF-CEM CDA over expressing cells; experiment: Cell Titer Glo proliferation, CCRF-CEM CDA over-expressing; conditions: CCRF-CEM overexpressing CDA, 10 μM dG + 1 μM BCX-1777 + dC, 72 h
Experimental: as §4

[12] = test system: SAMHD1-deficient primary melanoma cell lines; experiment: Crystal violet proliferation analysis, SAMHD1-deficient primary melanoma models; conditions: 1 μM PNPi + 10 μM dG, 7 d
Experimental: as §3

NALM6 cells [13] = experiment: Immunoblot analysis, NALM6; conditions: NALM6, 5 μM dG + 1 μM BCX-1777, 24 h
Experimental: as §1

B-ALL cell lines = experiment: Cell Titer Glo proliferation, B-ALL models; conditions: 5 μM dG + 1 μM BCX-1777, 72 h
Experimental: as §4

HCC827 cells [14] = experiment: Propidium iodide cell cycle analysis, HCC827; conditions: HCC827, 5 μM dG + 1 μM BCX-1777, 24 h
Experimental: as §2

SUIT2 cells [15] = experiment: Cell Titer Glo proliferation, SUIT2 wild-type; conditions: SUIT2 (SAMHD1-proficient), 72 h, +5 μM dG
Experimental: as §4

SUIT2 SAMHD1 KO cells [16] = experiment: Cell Titer Glo proliferation, SUIT2 SAMHD1 knockout; conditions: 72 h
Experimental: as §4

NALM6 cells [17] = experiment: Cell Titer Glo proliferation, NALM6; conditions: NALM6 (SAMHD1-proficient), 72 h, +1 μM dG
Experimental: as §4

Question: For `Cc1cn([C@H]2C[C@H](O)[C@@H](CO)O2)c(=O)[nH]c1=O` [thymidine], which “induction of pCHEK1S345 and pH2A.XS139” value (SUIT2 SAMHD1 KO cells [1]; SUIT2 SAMHD1 KO vs WT, 100 μM dT, 24 h) is on record?
Answer: Its value is “enhanced”.

Question: Which “response to PNPi (DNA damage)” value (SUIT2 cells [2]) does the source give for `O=c1[nH]cnc2c([C@@H]3N[C@H](CO)[C@@H](O)[C@H]3O)c[nH]c12` [Forodesine] here?
Answer: The value was “completely resistant”.

Question: And the “cytotoxic effect of PNPi” value [3]?
Answer: Its value is “completely resistant”.

Question: And the “proliferation, crystal violet” value (SUIT2 SAMHD1 KO cells [4]; only SUIT2 SAMHD1 knockout cells, 5 μM dG + 1 μM PNPi)?
Answer: Its value is “could be prevented”.

Question: What about the “proliferation, crystal violet” value (HCC827 cells [5]) of the same compound?
Answer: Its value is “proliferation inhibition”.

Question: And the “proliferation with dC supplementation” value (CCRF-CEM cells [6]; CCRF-CEM YFP, 10 μM dG + 1 μM BCX-1777 + 1 μM dC, 72 h)?
Answer: Its value is 60 % of control.

Question: And the proliferation (CCRF-CEM cells [6]; CCRF-CEM YFP, 10 μM dG + 1 μM BCX-1777, 72 h)?
Answer: The proliferation was 1 % of control.

Question: What about the “anti-proliferative effect of the combination with dG” value (from here on “anti-proliferative effect … with dG”) (CCRF-CEM cells [6]; CCRF-CEM, 5 μM dG + 1 μM BCX-1777, 72 h) of the same compound?
Answer: Its value is “eradicated”.

Question: And the “anti-proliferative effect … with dG” value (JURKAT cells; JURKAT, 5 μM dG + 1 μM BCX-1777, 72 h)?
Answer: Its value is “eradicated”.

Question: What about the IC50 (HCC827 cells [7]) of the same compound?
Answer: The IC50 was 71 nM.

Question: What about the “DNA damage (H2AXS139 phosphorylation)” value (CCRF-CEM cells [8]) of the same compound?
Answer: The value was “induced DNA damage”.

Question: What about the “apoptosis (cleaved caspase 3 accumulation)” value (CCRF-CEM cells [8]) of the same compound?
Answer: Its value is “apoptosis”.

Question: And the “percentage of sub-G1 cells (marker for cell death)” value (T-ALL cell lines)?
Answer: The value was “increase in the percentage of sub-G1 cells”.

Question: What about the “anti-proliferative effect of PNPi” value ([9]; CCRF-CEM expressing SAMHD1, 5 μM dG + 1 μM BCX-1777, 72 h) of the same compound?
Answer: The value was “completely resistant”.

Question: What about the cell cycle [10] of the same compound?
Answer: Its cell cycle is “induced cell cycle arrest”.

Question: And the “anti-proliferative effect … with dG” value (MOLT-4 cells)?
Answer: Its value is “eradicated”.

Question: And the “dC rescue of the anti-proliferative effect of PNPi” value [11]?
Answer: The value was “prevented this rescue”.

Question: And the “proliferation, crystal violet” value [12]?
Answer: The value was “selectively inhibited proliferation”.

Question: What about the “DNA damage and apoptosis” value (NALM6 cells [13]) of the same compound?
Answer: The value was “not in NALM6 cells”.

Question: And the “DNA damage in response to PNPi” value (SUIT2 SAMHD1 KO cells [1]; SUIT2 SAMHD1 knockout, 5 μM dG + 1 μM forodesine, 24 h)?
Answer: The value was “exhibited DNA damage”.

Question: What about the “anti-proliferative effect … with dG” value (B-ALL cell lines) of the same compound?
Answer: The value was “unaffected”.

Question: And the cell cycle (HCC827 cells [14])?
Answer: The cell cycle was “induced cell cycle arrest”.

Question: Which “proliferation (ulodesine)” value (SUIT2 cells [15]) does the source give for `O=c1[nH]cnc2c(CN3C[C@H](CO)[C@@H](O)C3)c[nH]c12` [ulodesine] here?
Answer: Its value is “not exhibiting any activity”.

Question: What about the “proliferation (ulodesine)” value (CCRF-CEM cells [6]; CCRF-CEM (SAMHD1 deficient), 72 h, +1 μM dG) of the same compound?
Answer: The value was “selectively impaired the proliferation”.

Question: And the “proliferation (ulodesine)” value (JURKAT cells; JURKAT (SAMHD1 deficient), 72 h, +1 μM dG)?
Answer: The value was “selectively impaired the proliferation”.

Question: What about the “proliferation (ulodesine)” value (HCC827 cells [7]; HCC827 (SAMHD1 deficient), 72 h, +5 μM dG) of the same compound?
Answer: The value was “selectively impaired the proliferation”.

Question: And the IC50 (HCC827 cells [7])?
Answer: The IC50 was 21 nM.

Question: And the “proliferation (ulodesine)” value ([9]; CCRF-CEM overexpressing SAMHD1, 72 h, +1 μM dG)?
Answer: Its value is “resistance”.

Question: What about the “proliferation (ulodesine)” value (SUIT2 SAMHD1 KO cells [16]; SUIT2 CRISPR/Cas9 SAMHD1 knockout, +5 μM dG) of the same compound?
Answer: The value was “sensitive”.

Question: What about the “proliferation (ulodesine)” value (NALM6 cells [17]) of the same compound?
Answer: Its value is “not exhibiting any activity”.

Question: With `NC(=S)N/N=C/c1ncccc1N` [3-AP] as the compound, how does the “selectivity for SAMHD1 KO over WT cells” value (SUIT2 SAMHD1 KO cells [16]; SUIT2 SAMHD1 KO vs WT) read?
Answer: The value was “did not extend”.

Question: (R)-DI-82 [dCK inhibitor] was tested. Which “effect of dCK inhibitor on PNPi anti-proliferative effect” value (SUIT2 SAMHD1 KO cells [4]; SUIT2 SAMHD1 knockout, 5 μM dG + 1 μM PNPi + 1 μM dCKi) did it give?
Answer: Its value is “completely blocked”.

Question: What about the “effect of dCK inhibitor on PNPi-induced DNA damage” value (SUIT2 SAMHD1 KO cells [1]; SUIT2 SAMHD1 knockout, 5 μM dG + 1 μM forodesine + 1 μM (R)-DI-82, 24 h) of the same compound?
Answer: The value was “completely prevented”.
